{
  "source": "patent US12629415B2",
  "about": "“Vaccine adjuvants” (THE PROVOST, FELLOWS, FOUNDATION SCHOLARS, AND THE OTHER …, priority 2018, dated 2026)",
  "key": {"PBMCs or CBMCs": {"system": "PBMCs or CBMCs", "experiment": "Quantitative RT-PCR of TNFα, IFNα and CXCL10 mRNA", "format": "cell-based, human", "details": "CBMCs vs PBMCs", "experimental": "(§1) Poly(I:C) (5 μg/ml) (Invivogen), Poly(dA:dT) (5 μg/ml) (Sigma-Aldrich), 2′3′ cGAMP (10 μg/ml), 5′ triphosphate double stranded RNA (5′ ppp dsRNA) (2.5 μg/ml) and HSV-60 (2 μg/ml) (all from Invivogen) were transfected into PBMCs or CBMCs using TransIT-X2 (Mirus).\nQuantitative RT-PCR—Total RNA from PBMCs or CBMCs was extracted using trizol extraction as previously described (16) and was reverse transcribed using MMLV Reverse Transcriptase (Promega) according to the manufacturer's protocol. This cDNA served as template for amplification of target genes, along with the ‘housekeeping’ gene βActin, by real-time PCR with SensiFast SYBR Green (Bioline) to determine the relative amounts of CXCL10, IFNα and TNFα mRNA. The ABI 7900HT system (Applied Biosystems) was used for real-time PCR, and the cycling threshold method (2^−(ΔΔCt)) was used for relative quantification by comparative method after normalization to βActin expression."}, "[1]": {"system": "mononuclear cells from cord blood, children's blood or adult blood", "experiment": "HEK-Blue IFNα/β and TNFα assays on mononuclear cells of cord blood, children and adults", "format": "cell-based, human", "details": "transfection 24 h, 4-24 months, 2-5 years, 6-11 years", "text": "Umbilical cord blood samples were obtained from term births following normal pregnancy, labour and delivery at National Maternity Hospital (NMH), Holles St, Dublin 2. […] Venous blood from infants, children and adolescents of various ages was collected during elective surgical procedures where no indication of infection was present (such as hydrocele repair, umbilical hernia repair, onychocryptosis, orchipexy repair) in Our Lady's Children's Hospital Crumlin (OLCHC), Dublin 12. […] Volumes drawn were age and weight dependent, according to standard, approved guidelines. Ethics approval was obtained from the Ethics Committees of NMH and OLCHC and informed consent was obtained from each subject or their parent/guardian. Adult blood samples were from healthy adults, supplied by the Irish Blood Transfusion Service. • Poly(I:C), Poly(dA:dT) and cGAMP were obtained from Invivogen • Poly (dA:dT) is a repetitive synthetic double-stranded DNA sequence of poly(dA-dT)-poly(dT-dA) http://www.invivopen.com/poly-dadt-naked • Poly (I:C) comprises long strands of inosine poly(I) homopolymer annealed to strands of cytidine poly(C) homopolymer http://www.invivogen.com/polyic-hmw. • cGAMP is cyclic [G(2′,5′)pA(3′,5′)p]; Formula: […], 2Na Methodology\n(§2) Isolation of mononuclear cells and monocytes—Primary PBMCs or CBMCs were isolated from healthy human blood or cord blood. Monocytes were isolated by negative selection using Monocyte Isolation Kit II (Miltenyi). Monocyte purity was assessed using CD14 staining and was routinely 85-95%. Cells were cultured at 37° C., 5% CO2, 95% air in RPMI-1640, with stable 2.5 mM L-glutamine and 0.5 mM sodium pyruvate with 10% FBS (all from Sigma-Aldrich).\nas §1\n(§3) Measurement of cytokines—HEK Blue TNFα/IFNα/β Assays were performed as per the manufacturer's (Invivogen) instructions using Quanti-Blue Detection Reagent. SEAP levels were determined using a spectrophotometer plate reader at 630 nm. IFNα (3425-1H-6, Mabtech) and IP-10 (DY266, R&D Systems) were detected by sandwich ELISA. IFNα ELISA used pan specific IFNα antibodies, which allows detection of IFNα subtypes 1/13, 2, 4, 5, 6, 7, 8, 10, 14, 16 and 17. BioLegend LEGENDplex™ Human Inflammation Panel (13-plex) was carried out as per manufacturer's (Biolegend) instructions to determine levels of IFNγ, IL-10, IL-12p70 and IL-23. A BD LSR Fortessa cell analyser was used to acquire samples and BioLegend LEGENDplex™ software was used for analysis."}, "[2]": {"system": "adult PBMCs or neonatal CBMCs", "experiment": "HEK-Blue IFNα/β SEAP assay on supernatants of stimulated mononuclear cells", "format": "cell-based, human", "experimental": "as §2, with “Monocyte purity was assessed using CD14 staining and was routinely 85-95%.” left out\nas §1, §3"}, "Human PBMCs": {"system": "Human PBMCs", "experiment": "IL-1β ELISA on stimulated human PBMCs", "format": "cell-based", "details": "with or without LPS 100 pg/ml priming; 24 hours", "experimental": "Supernatants were collected after 24 hours and IL-1β was detected by ELISA. Human PBMCs were stimulated for 24 hours with polydA:dT (5 μg/ml, 2 μg/ml or 1 μg/ml) or alum (50 μg/ml) alone or with LPS (100 pg/ml) (C & D). Supernatants were collected and IL-1β was detected by ELISA. Bovine PBMCs were cultured with polydA:dT (1 μg/ml) with or without LPS (100 pg/ml) for 16 hours (E). Cell lysates were harvested and pro-IL-1β was detected by western blot. PBMCs were stimulated with media or polydA:dT (1 μg/ml) for 6 hours. Cells were lysed and RNA was harvested and used for analysis by RT-PCR (F). Results are mean+/− SEM for 6 calves tested individually in triplicate. For human analysis, results are mean+/− SEM for 6 humans tested individually in triplicate The PPIA gene was used for normalization of gene expression."}},
  "note": "Entries after “also recorded” stand apart in the source; their conditions may differ.",
  "data": [
    {"substance": "poly(deoxyadenylic-thymidylic) acid [Poly(dA:dT)]", "values": [
      {"measurement": "CXCL10 mRNA expression", "setting": "PBMCs or CBMCs; 4 h", "result": "no inhibition of transcription"},
      {"measurement": "IFNα mRNA expression", "setting": "PBMCs or CBMCs; 24 h", "result": "no inhibition of transcription"},
      {"measurement": "TNFα mRNA expression", "setting": "PBMCs or CBMCs; CNA 4 h, LPS 2 h", "result": "no significant difference in TNFα levels"},
      {"measurement": "TNFα production across age groups", "setting": "[1]", "result": "maintenance of cord blood responsiveness to CNA was also observed for both Poly(I:C) and Poly(dA:dT)-induced TNFα production to the age of 24 months"},
      {"measurement": "production of type I IFN across age groups", "setting": "[1]", "result": "maintained throughout childhood; also recorded: maintained across all age groups"},
      {"measurement": "innate immune response in neonatal and/or paediatric blood", "setting": "[2]; compared with adult blood, summary statement", "result": "robust innate immune response in neonatal and/or paediatric blood"},
      {"measurement": "type I IFN (IFNα/β) production", "setting": "[2]; neonatal CBMCs compared with adult PBMCs, stimulation 4, 8 or 24 h", "result": "no inhibition of type I IFN production in CBMCs when compared to PBMCs"},
      {"measurement": "IL-1β secretion by human PBMCs", "setting": "Human PBMCs", "result": "only cells primed with LPS 3 h prior to transfection with polydA:dT secreted processed IL-1β; also recorded: human PBMCS did not secrete processed IL-1β"}
    ]}
  ]
}
